Measured values from a melting point compilation (Tetko et al.; mined from patent text by program, amines drawn as free bases though some values may be those of a salt).

Row | SMILES | melting point [°C]
1 | O=C(O)CNC1C2CC3CC(C2)CC1C3 (configuration not stated) | 255
2 | Cc1ccc(-c2cccc3c2CC(CNC(=O)OCc2ccccc2)O3)cc1 (configuration not stated) | 134 to 136
3 | CC(C)(C)C1=NCC(O)CN1 (configuration not stated) | 210
4 | O=C1N(Cc2ccc(-c3ccccc3C(F)(F)F)o2)c2ccccc2C12COc1cc3c(cc12)OCOC3 (configuration not stated) | 124 to 126
5 | NC(=O)N1C(=O)C(=C(OC(=O)c2ccncc2)c2cccs2)c2cc(F)c(Cl)cc21 | 220 to 221
6 | CN(C)C(=O)c1cc2ccccc2c(-c2ccccc2)n1 | 114 to 116
7 | CC(C)(C)[Si](C)(C)Oc1cc(Cl)cc(C(=O)C(F)(F)F)c1N | 45 to 46.5
8 | CC(C)C[C@@H](CO)NC(=O)[C@H](Cc1c[nH]cn1)NC(=O)[C@H](Cc1cccc2ccccc12)NC(=O)OCC1c2ccccc2-c2ccccc21 | 118 to 120
9 | Cn1cccc1S(=O)(=O)NC(C)(C)C | 125 to 126
10 | Cc1cccc2c(=O)c(CCCl)n[nH]c12 | 222 to 225
11 | N#Cc1cnc2c(sc3ccc([N+](=O)[O-])cc32)c1Nc1cccc(Br)c1 | > 300
12 | C=CCOc1ccc(S(=O)(=O)N2CCN(C)CC2)cc1-c1nc2c(CCC)nn(C)c2c(=O)[nH]1 | 151 to 153
13 | CCS(=O)(=O)N1CCNC1=O | 114 to 116
14 | CC(C)(c1cc(F)cc([N+](=O)[O-])c1O)c1cc(F)cc([N+](=O)[O-])c1O | 138
15 | Cc1ccc(C(=O)NCCNC(=O)OC(C)(C)C)s1 | 109 to 110
16 | CCCCc1nn(-c2ccc(C(F)(F)F)cn2)cc1CCCO | 93 to 94
17 | C#Cc1ccc2c(c1)-c1c3c(c4c([nH]c5ccccc54)c1C2)C(=O)NC3 | > 300
18 | Cc1oc(-c2cc3ccccc3s2)nc1COc1ccc(CCCC2OC(=O)NC2=O)cc1 (configuration not stated) | 154 to 155
19 | O=CNCc1c[nH]c(=S)n1[C@H]1CCc2c(F)cc(F)cc2C1 | 245 to 246
20 | COc1cc(C)c(S(=O)(=O)c2cccc(C)c2)cc1OC | 135 to 140
21 | CCCCCCCCCCCCC(C)(CS(=O)(=O)O)C(=O)O (configuration not stated) | 84 to 85

Row | SMILES | melting point [°C]
22 | COC(=O)c1c(C(=O)OC)c2sc3ccccc3n2c1-c1ccc(OC)cc1 | 167 to 168
23 | CC(=O)N[C@@H]1CCN(S(=O)(=O)c2ccc(Cl)c(CBr)c2Cl)C1 | 222
24 | CS(=O)(=O)Cc1cc(C(=O)CBr)ccc1OCc1ccccc1 | 143 to 144
25 | CCOC(=O)c1cn(Cc2cnsn2)c2nc(Cl)c(F)cc2c1=O | 175 to 177
26 | Cc1nc2cc(N(C)C(=O)c3ccc(Cl)cc3Cl)ccc2n1C | 245 to 247
27 | CCCCCCCCCCCCCCC(CCCCC(=O)O)CCCCC(=O)O | 48 to 50
28 | O=C(O)c1ccc(Nc2cccc3ccccc23)cc1 | 227 to 229
29 | COc1ccc(C[C@H]2Cc3cc(C)cnc3[C@H](C)C2)cc1 | 218 to 222
30 | C=CCc1cc(C#CC2(O)CN3CCC2CC3)ccc1OCC(=O)OCC (configuration not stated) | 95.9
31 | CN1CCN(CC(=O)NC2(c3ccc(Cl)cc3)C(=O)Nc3cc(Cl)cc(Cl)c32)CC1 (configuration not stated) | 248 to 251
32 | COc1ccc(-c2cc3cc(Cl)ccc3o2)cc1 | 183 to 185
33 | Cc1cc(O)nc(Br)c1 | 152
34 | CC(=O)OCCCc1c2ccccc2cc2ccccc12 | 107 to 109
35 | CCS(=O)(=O)N[C@H](C(=O)NCCc1ccc(OCc2ccc(Cl)s2)c(OC)c1)C(C)C | 124 to 127
36 | CC=Cn1c2ccccc2c2ccccc21 | 57 to 58
37 | CNc1ccc(F)c(C#N)c1 | 64 to 65
38 | COc1ccc(S(=O)(=O)C(CC=C(C)C)(Cc2cccnc2)C(=O)NO)cc1 (configuration not stated) | 89 to 92
39 | O=S(=O)(Nc1cc(Cl)ccc1Cl)c1cc(S(=O)(=O)Nc2cc(Cl)ccc2Cl)c2cc(O)ccc2c1 | 214 to 216
40 | CNS(=O)(=O)c1cn(C)c2cc(F)ccc2c1=O | 255 to 257
41 | CC(NS(C)(=O)=O)c1ccc2[nH]cc(CCN3C(=O)c4ccccc4C3=O)c2c1 (configuration not stated) | 203 to 205
42 | COC(=O)c1ccccc1C(=O)c1ccc(CBr)cc1 | 88.2 to 91.5

Row | SMILES | melting point [°C]
43 | COC(=O)c1ccccc1C=Nc1ccc(Oc2ccc(C(F)(F)F)cc2Cl)cc1O | 82 to 85
44 | CS(=O)(=O)CC1COCc2nc3c(N)nc4ccccc4c3n21 (configuration not stated) | 158 to 161
45 | CCOC(=O)c1ccc(-c2ccc(C(C)O)cc2)cc1 (single isomer, unassigned; (+)) | 74.6
46 | CCCCN(CCCC)S(=O)(=O)c1ccc(Cl)c([N+](=O)[O-])c1 | 67 to 68
47 | O=C1OCCN1CCN1CCN(C2Cc3cc(Cl)ccc3Oc3ccc(F)cc32)CC1 (configuration not stated) | 180 to 182
48 | CNC(=O)C1CCNC(c2ccnc3ccccc23)C1 (configuration not stated) | 250 to 254
49 | CC(C)c1ccc(C(=O)CC(c2ccccc2)c2ccccc2)c(C(C)C)c1OS(N)(=O)=O | 149 to 152
50 | O=C1N(CC2CCCO2)c2cccc(Cl)c2C12COc1cc3c(cc12)CCO3 (configuration not stated) | 78 to 82
51 | COc1cc(OC)c(-c2cc3ccccc3s2)cc1/C=C/C(=O)c1ccc(C(=O)NC(=O)C(C)C)cc1 | 208 to 209
52 | c1nc2c(cc1NC1=NCCN1)CCCC2 | 201 to 203
53 | CN1CC2CN(C(=O)N3c4ccccc4C(=O)Nc4cccnc43)CC2C1 (configuration not stated) | 157 to 159
54 | CCOC(=O)c1nc2ncnc(NCc3ccccc3)c2[nH]1 | 181 to 185
55 | CCNc1cc(Oc2ccc(NC(=O)NC3CC3c3ccccc3)cc2)ncn1 (configuration not stated) | 205 to 206
56 | O=C1c2ccccc2C(=O)N1CCCCCCN1CCC(C2(c3ccc(F)cc3)OCCO2)CC1 | 72 to 76
57 | O=[N+]([O-])c1ccc(OCCn2ccnc2)cc1 | 55 to 57
58 | C#CCNC(=C[N+](=O)[O-])NCCSCc1ncccc1Cl | 171 to 172
59 | CCCCc1nc(C(C)O)c(C(=O)O)n1Cc1ccc(-c2ccccc2-c2nnn[nH]2)cc1 (configuration not stated) | 214 to 217
60 | CC(C)CCN1N=C(c2ccc(F)cc2)c2cc(Cl)ccc2CS1(=O)=O | 123 to 124
61 | CS(=O)(=O)c1ccc(-c2cnn(CC(F)(F)F)c(=O)c2Nc2ccccc2)cc1 | 154 to 156

Further lines, results first:

Row | melting point [°C] | SMILES
62 | 72 to 76 | CCCCCNC(=S)CC(=O)O
63 | 102 to 110 | O=C(NC(c1ccccc1)c1cc2ccncc2[nH]1)c1ccccn1 (configuration not stated)
64 | 210 | O=C(COc1ccc(-c2cc3ccc(OCC(=O)c4ccc(Cl)cc4)cc3s2)cc1)c1ccc(Cl)cc1
65 | 186 to 187 | CCOC(=O)C(=O)Nc1sccc1C(N)=O
66 | 198 to 202 | COc1ccc(Cn2c(N)c(NC(=O)C(C)(C)OCc3ccccc3)c(=O)[nH]c2=S)cc1OC1CCCC1
67 | 167 to 170 | CCOCCc1nc(N)cc(=O)[nH]1
68 | 122 | CC(=O)n1cc(Cn2ccnc2)c2ccccc21
69 | 161 | O=Cc1ccc(C(=O)Nc2ccncc2)cc1
70 | 135 to 138 | Cc1c(C)c2c(c(C)c1N)CC(C)(CN1CCN(C(=O)CCC(c3ccccc3)c3ccccc3)CC1)O2 (configuration not stated)
71 | 162 to 163 | O=C(NCc1ccccc1)c1ccnc(-n2ccc(-c3ccccc3)cc2=O)c1
72 | 129 to 132 | OP(O)C(NC(c1ccccc1)c1ccccc1)c1cccnc1 (configuration not stated)
73 | 123 | CCCCc1ncc(CCNC(CCc2ccccc2)C(=O)O)n1Cc1ccccc1Cl (configuration not stated)
74 | 200 | COc1nc(C)nc(NC(=O)NS(=O)(=O)c2c(C3=NOCCO3)csc2C)n1
75 | 150 | CC(=O)c1nn(-c2c(Cl)cc(C(F)(F)F)cc2Cl)cc1C1CC1(Br)Br (configuration not stated)
76 | 203 to 205 | NC(=O)c1c(Cl)c(-c2ccccc2)n2c1CN(S(=O)(=O)c1ccc([N+](=O)[O-])cc1)CC2
77 | 88 to 89 | CC(C)Oc1ccc(CCCOc2cc(CCC(=O)O)n(C)n2)c(OCc2ccc(C(F)(F)F)cc2)c1
78 | 200 | CC(=O)CC1=C(C#N)C(c2cccc3nonc23)c2c[nH]nc2N1 (configuration not stated)
79 | 72 to 73 | CC(=O)NCCc1ccc(CO)cc1
80 | 172 to 173 | CC(C)c1ccc(OC(Cc2ccc(OCCNC(=O)c3ccc(-c4ccccc4)cc3)cc2)C(=O)O)cc1 (configuration not stated)
81 | 120 to 121 | O=C(O)CCCCCCc1cnc2ccccc2c1
82 | 67 to 68 | COc1cc(CCCl)cc2c1OCO2

Row | melting point [°C] | SMILES
83 | 117 to 120 | CC(C)(C)OC(=O)NC1C=C(C(=O)O)OC1 (configuration not stated)
84 | 159 to 160 | CC(O)c1ccc(-c2ccc(O)cc2)cc1 (configuration not stated)
85 | 72 | C=C(C)CC(NC=O)(C(=O)OCC)C(=O)OCC
86 | 107 to 108 | COc1ccc2c(c1)C(O)(CC#N)C(C)(C)CC2 (configuration not stated)
87 | 59.4 | Cc1c(C(F)(F)F)ncn1-c1ncc(C(F)(F)F)cc1Cl
88 | 145 to 146 | Cc1ccc2c(c1)nc(/C=C/c1ccccc1)n2-c1ccccn1
89 | 62 to 64 | CCN(CC)S(=O)(=O)c1cc(Cl)cc(O)c1O
90 | 264 | O=C1C2=C(SCCO2)C(=O)N1c1ccc2ccc(Cl)nc2n1
91 | 117 to 119 | O=C(O)CCc1ccc(SCCNS(=O)(=O)c2ccc(Cl)cc2)cc1
92 | 51.2 to 53.6 | CCc1nn2c(-c3ccc(OC)cc3OC)cccc2c1N(CC)CCF
93 | 82 | Cc1c(CCCCCC(=O)O)cccc1C(=O)c1ccc(Cl)cc1
94 | 274 | Cn1c(-c2ccc(Cl)c(S(N)(=O)=O)c2)csc1=Nc1ccc(O)cc1
95 | 104 to 106 | Cc1cc(Oc2c(Cl)cc(C(F)(F)F)cc2Cl)nn1C(=O)NCC(F)(F)F
96 | 113 to 116 | CC(=O)NNc1nc(C(F)(F)F)nc(-c2ccccc2)c1-c1ccccc1
97 | 43.8 | CCCCNC(=O)c1ccco1
98 | 42 to 43 | CCCCCOC1CCC(=O)N1 (configuration not stated)
99 | 250 | Cc1ccc(-c2ccc(C)c(C(N)=O)c2N)cc1
100 | 321 to 322 | COc1cc2c(c(OC(C)=O)c1OC)=NC(=O)C(=O)N=2
101 | 119 to 121 | Cc1nc(C)n(-c2cc([C@@H]3C[C@H]3c3nc4ccccc4n3C)nc(C(N)=O)n2)n1 (relative stereo)
102 | 171 to 174 | Nc1nc(-c2ccc(F)c3ccccc23)co1
